Results: publication PMC2997942 (Molecular pharmaceutics, 2010)
Like-named read-outs stand apart in the source and are kept apart here.

Key:
OCTN2 [1] = biological target: T1, OCTN2 (Homo sapiens, UniProt O76082); settings: read-out: Ki or IC50; Caki-1 (human proximal tubule cell line); cited from earlier work
T1 sequence (O76082 1-557): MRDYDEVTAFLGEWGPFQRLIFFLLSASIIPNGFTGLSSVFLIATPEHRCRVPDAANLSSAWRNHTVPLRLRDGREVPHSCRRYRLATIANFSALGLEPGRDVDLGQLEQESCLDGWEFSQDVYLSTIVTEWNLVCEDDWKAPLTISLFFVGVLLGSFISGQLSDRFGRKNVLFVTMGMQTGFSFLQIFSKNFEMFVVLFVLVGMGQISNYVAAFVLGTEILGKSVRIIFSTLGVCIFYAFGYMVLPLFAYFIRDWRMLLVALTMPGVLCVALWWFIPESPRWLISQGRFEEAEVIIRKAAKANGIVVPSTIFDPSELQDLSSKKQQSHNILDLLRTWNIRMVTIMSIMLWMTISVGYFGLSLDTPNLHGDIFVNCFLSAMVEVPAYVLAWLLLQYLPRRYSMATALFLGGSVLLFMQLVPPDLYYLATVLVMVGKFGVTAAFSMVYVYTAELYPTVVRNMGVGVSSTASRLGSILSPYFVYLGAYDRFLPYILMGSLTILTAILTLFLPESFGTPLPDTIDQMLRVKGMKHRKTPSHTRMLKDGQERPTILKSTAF

OCTN2 [2] = biological target: T1, OCTN2; settings: hOCTN2-Transfected MDCKII Cells, cited from earlier work; for Ki: read-out: Ki or IC50
[3] = clinical; ref Supplemental Table S6 references 1-19; cited from earlier work
OCTN2 [4] = biological target: T1, OCTN2; settings: read-out: Ki or IC50; L6 cells overexpressing hOCTN2; cited from earlier work
human OCTN2 = settings: read-out: Ki or IC50; Hela with human OCTN2; cited from earlier work
OCTN2 [5] = biological target: T1, OCTN2; test: Inhibition of L-carnitine uptake in stably transfected hOCTN2-MDCK cells; type: cell-based; settings: Observed Ki (±SEM), test set, 10 min, competitive inhibition model
[6] = in vivo; cited from earlier work
rat OCTN2 [7] = settings: L6 stable cell line with rat OCTN2; cited from earlier work
OCTN2 [8] = biological target: T1, OCTN2; settings: read-out: Ki or IC50; BeWo (human placental cell line); cited from earlier work
OCTN2 [9] = settings: Mouse enterocyte; cited from earlier work
rat OCTN2 [10] = settings: read-out: Ki or IC50; HEK stable cell line with rat OCTN2; cited from earlier work
[11] = tested on: Mouse myoblastic C2C12 cells; settings: read-out: Ki or IC50; cited from earlier work

CCCC[N+]1(C)C2CC(OC(=O)C(CO)c3ccccc3)CC1C1OC12 (single isomer, unassigned; (-)) [(−)-N- butylscopolamine]
Ki (OCTN2 [1]): 1010 µM

CCCC(=O)Nc1ccc(OCC(O)CNC(C)C)c(C(C)=O)c1 (stereo not shown) [Acebutolol]
Ki or IC50 (OCTN2 [2]): Not inhibitor | Documented to cause rhabdomyolysis and/or carnitine deficiency in the literature [3]: No

C[C@H](CS)C(=O)N1CCC[C@H]1C(=O)O [Captopril]
Ki or IC50 (OCTN2 [2]): Not inhibitor

Cc1nnc(SCC2=C(C(=O)O)N3C(=O)[C@@H](NC(=O)Cn4cnnn4)[C@H]3SC2)s1 [Cefazolin]
Ki (OCTN2 [4]): 6740 µM

CO/N=C(\C(=O)N[C@@H]1C(=O)N2C(C(=O)[O-])=C(C[N+]3(C)CCCC3)CS[C@H]12)c1csc(N)n1 [Cefepime]
Ki (human OCTN2): 1700 µM

CO/N=C(\C(=O)N[C@@H]1C(=O)N2C(C(=O)[O-])=C(C[n+]3ccc(N)n3CCO)CS[C@H]12)c1csc(N)n1 [Cefoselis]
Ki (human OCTN2): 6400 µM | Documented to cause rhabdomyolysis and/or carnitine deficiency in the literature [3]: Yes[3]

CO/N=C(\C(=O)N[C@@H]1C(=O)N2C(C(=O)O)=C(COC(N)=O)CS[C@H]12)c1ccco1 [Cefuroxime]
Documented to cause rhabdomyolysis and/or carnitine deficiency in the literature [3]: Yes[9] | Ki (OCTN2 [4]): 525 µM

O=C(Cc1cccs1)N[C@@H]1C(=O)N2C(C(=O)[O-])=C(C[n+]3ccccc3)CS[C@H]12 [Cephaloridine]
Ki (human OCTN2): 230 µM

O=C(O)COCCN1CCN(C(c2ccccc2)c2ccc(Cl)cc2)CC1 (stereo not shown) [Cetirizine]
Documented to cause rhabdomyolysis and/or carnitine deficiency in the literature [3]: No

CN/C(=N/CCSCc1nc[nH]c1C)NC#N [Cimetidine]
Documented to cause rhabdomyolysis and/or carnitine deficiency in the literature [3]: No

COc1cc(N)c(Cl)cc1C(=O)NC1CCN(CCCOc2ccc(F)cc2)CC1OC (stereo not shown) [Cisapride]
Ki (OCTN2 [5]): 66.7 ± 9.8 µM | Documented to cause rhabdomyolysis and/or carnitine deficiency in the literature [3]: Yes[13]

N.N.[Cl][Pt][Cl] [Cisplatin]
Cmax [6]: 8130 nM | Ki or IC50 (rat OCTN2 [7]): Not inhibitor | Documented to cause rhabdomyolysis and/or carnitine deficiency in the literature [3]: Yes[19]

COc1cccc2c1C(=O)c1c(O)c3c(c(O)c1C2=O)C[C@@](O)(C(C)=O)C[C@@H]3O[C@H]1C[C@H](N)[C@H](O)[C@H](C)O1 [Daunorubicin]
Ki (OCTN2 [5]): 502 ± 41 µM | Documented to cause rhabdomyolysis and/or carnitine deficiency in the literature [3]: No

C[C@H]1O[C@@H](O[C@H]2[C@@H](O)C[C@H](O[C@H]3[C@@H](O)C[C@H](O[C@H]4CC[C@@]5(C)[C@H](CC[C@@H]6[C@@H]5C[C@@H](O)[C@]5(C)[C@@H](C7=CC(=O)OC7)CC[C@]65O)C4)O[C@@H]3C)O[C@@H]2C)C[C@H](O)[C@@H]1O [Digoxin]
Ki or IC50 (OCTN2 [2]): Not inhibitor

O=C1[C@H](CC[C@H](O)c2ccc(F)cc2)[C@@H](c2ccc(O)cc2)N1c1ccc(F)cc1 [Ezetimibe]
Ki (OCTN2 [5]): 29.3 ± 5 µM | Documented to cause rhabdomyolysis and/or carnitine deficiency in the literature [3]: Yes with statin[15]

NC(N)=Nc1nc(CSCCC(N)=NS(N)(=O)=O)cs1 [Famotidine]
Documented to cause rhabdomyolysis and/or carnitine deficiency in the literature [3]: Yes[18] | Ki (OCTN2 [1]): 1920 µM

NS(=O)(=O)c1cc(C(=O)O)c(NCc2ccco2)cc1Cl [Furosemide]
Documented to cause rhabdomyolysis and/or carnitine deficiency in the literature [3]: No

NCC1(CC(=O)O)CCCCC1 [Gabapentin]
Documented to cause rhabdomyolysis and/or carnitine deficiency in the literature [3]: No

Cc1c(F)c(N2CCNC(C)C2)cc2c1c(=O)c(C(=O)O)cn2C1CC1 (stereo not shown) [Grepafloxacin]
Ki (OCTN2 [8]): 300 µM

CCc1c2c(nc3ccc(OC(=O)N4CCC(N5CCCCC5)CC4)cc13)-c1cc3c(c(=O)n1C2)COC(=O)[C@]3(O)CC [Irinotecan]
Ki (OCTN2 [5]): 219 ± 18 µM

CCN(CC)CC(=O)Nc1c(C)cccc1C [Lidocaine]
Ki or IC50 (OCTN2 [9]): Not inhibitor | Documented to cause rhabdomyolysis and/or carnitine deficiency in the literature [3]: No

CC12CC3CC(C)(C1)CC(N)(C3)C2 [Memantine]
Ki or IC50 (OCTN2 [2]): Not inhibitor | Documented to cause rhabdomyolysis and/or carnitine deficiency in the literature [3]: No

CN(C)C(=N)N=C(N)N [Metformin]
Documented to cause rhabdomyolysis and/or carnitine deficiency in the literature [3]: Yes[14] | Ki (OCTN2 [1]): 4960 µM

COCCc1ccc(OCC(O)CNC(C)C)cc1 (stereo not shown) [Metoprolol]
Ki or IC50 (OCTN2 [2]): Not inhibitor

C[N+](C)(C)NCCC(=O)[O-] [Mildronate]
Ki (OCTN2 [2]): 26 µM | Documented to cause rhabdomyolysis and/or carnitine deficiency in the literature [3]: No

CNC(=C[N+](=O)[O-])NCCSCc1csc(CN(C)C)n1 [Nizatidine]
Ki (OCTN2 [5]): 183 ± 17 µM | Documented to cause rhabdomyolysis and/or carnitine deficiency in the literature [3]: No

O=C1[O][Pt]2([NH][C@@H]3CCCC[C@H]3[NH]2)[O]C1=O [Oxaliplatin]
Ki or IC50 (rat OCTN2 [7]): Not inhibitor | Documented to cause rhabdomyolysis and/or carnitine deficiency in the literature [3]: No

OC1(c2ccc(Cl)c(C(F)(F)F)c2)CCN(CCCC(c2ccc(F)cc2)c2ccc(F)cc2)CC1 [Penfluridol]
Ki (OCTN2 [5]): 26.5 ± 4.1 µM | Documented to cause rhabdomyolysis and/or carnitine deficiency in the literature [3]: No

CCCN(CCC)S(=O)(=O)c1ccc(C(=O)O)cc1 [Probenecid]
Ki or IC50 (OCTN2 [9]): Not inhibitor | Documented to cause rhabdomyolysis and/or carnitine deficiency in the literature [3]: No

COC(=O)[C@H]1[C@H]2C[C@@H]3c4[nH]c5cc(OC)ccc5c4CCN3C[C@H]2C[C@@H](OC(=O)c2cc(OC)c(OC)c(OC)c2)[C@@H]1OC [Reserpine]
Ki (OCTN2 [5]): 32.2 ± 4.8 µM | Documented to cause rhabdomyolysis and/or carnitine deficiency in the literature [3]: No

Cc1nc2n(c(=O)c1CCN1CCC(c3noc4cc(F)ccc34)CC1)CCCC2 [Risperidone]
Documented to cause rhabdomyolysis and/or carnitine deficiency in the literature [3]: Yes with statin[17]

CC(C)c1nc(CN(C)C(=O)N[C@H](C(=O)N[C@@H](Cc2ccccc2)C[C@H](O)[C@H](Cc2ccccc2)NC(=O)OCc2cncs2)C(C)C)cs1 [Ritonavir]
Documented to cause rhabdomyolysis and/or carnitine deficiency in the literature [3]: Yes with statin[5]

CC[C@H]1OC(=O)[C@H](C)[C@@H](O[C@H]2C[C@@](C)(OC)[C@@H](O)[C@H](C)O2)[C@H](C)[C@@H](O[C@@H]2O[C@H](C)C[C@H](N(C)C)[C@H]2O)[C@](C)(O)C[C@@H](C)/C(=N\OCOCCOC)[C@H](C)[C@@H](O)[C@]1(C)O [Roxithromycin]
Ki (OCTN2 [5]): 333 ± 25 µM | Documented to cause rhabdomyolysis and/or carnitine deficiency in the literature [3]: Yes with statin[10]

CC(=O)S[C@@H]1CC2=CC(=O)CC[C@]2(C)[C@H]2CC[C@@]3(C)[C@@H](CC[C@@]34CCC(=O)O4)[C@H]12 [Spironolactone]
Ki (OCTN2 [2]): 26 µM | Documented to cause rhabdomyolysis and/or carnitine deficiency in the literature [3]: No

Nc1c2c(nc3ccccc13)CCCC2 [Tacrine]
Cmax [6]: 134 nM | Ki (rat OCTN2 [10]): 500 µM

CCCC(CCC)C(=O)O [Valproic acid]
Documented to cause rhabdomyolysis and/or carnitine deficiency in the literature [3]: Yes[1]

CC[C@]1(O)C[C@H]2CN(CCc3c([nH]c4ccccc34)[C@@](C(=O)OC)(c3cc4c(cc3OC)N(C=O)[C@H]3[C@@](O)(C(=O)OC)[C@H](OC(C)=O)[C@]5(CC)C=CCN6CC[C@]43[C@@H]65)C2)C1 [Vincristine]
Documented to cause rhabdomyolysis and/or carnitine deficiency in the literature [3]: Yes[8]

CCC1=C[C@@H]2CN(C1)Cc1c([nH]c3ccccc13)[C@@](C(=O)OC)(c1cc3c(cc1OC)N(C)[C@H]1[C@@](O)(C(=O)OC)[C@H](OC(C)=O)[C@]4(CC)C=CCN5CC[C@]31[C@@H]54)C2 [Vinorelbine]
Ki (OCTN2 [5]): 26.8 ± 1.5 µM | Documented to cause rhabdomyolysis and/or carnitine deficiency in the literature [3]: No

Cc1cn([C@H]2C[C@H](N=[N+]=[N-])[C@@H](CO)O2)c(=O)[nH]c1=O [Zidovudine]
Ki [11]: 6 µM

Ciclotropium
Cmax [6]: 20.6 nM | Documented to cause rhabdomyolysis and/or carnitine deficiency in the literature [3]: No | Ki (OCTN2 [1]): 30 µM
